# Reference: US4211772A, “Benzopyran glycoside acetals and ketals” (Laboratoires Sarget, priority 1977, dated 1980)
# Read-outs that look alike come from different tables or passages of the source.
# Key:
# Solubilities in water = type: physicochemical; details: water; read-out: Solubilities in water
# Aldose Reductase = target: T1, Aldose Reductase (Bos taurus, UniProt P16116); assay: Inhibition of aldose reductase in vitro (enzyme from beef eye lenses, glyceraldehyde substrate); type: biochemical; details: in DMF solution, read-out: percentages of inhibition (aldose reductase); for inhibition at 100 µM: 10^-4 mole/l; for inhibition at 10 µM: 10^-5 mole/l; for inhibition at 1 µM: 10^-6 mole/l; for inhibition at 0.1 µM: 10^-7 mole/l
# T1 construct: The enzyme is extracted from beef eye lenses; from tissue; host or cells: beef eye lenses
# From the text: Inhibition of Aldose Reductase In Vitro
# The reoxidation of NADPH coupled to the enzymatic reaction was followed spectrophotometrically at 340 nm.
# carragenin edema = assay: Anti-inflammatory activity: carragenin edema test; type: in vivo; details: for % inhibition of carragenin edema: borate buffer pH 7, 24 h; for inhibition in vivo at 75 mg/kg / inhibition in vivo at 100 mg/kg / inhibition in vivo at 150 mg/kg / inhibition in vivo at 200 mg/kg / inhibition in vivo at 50 mg/kg: Rattus norvegicus, ip
# In short: (§1)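 Male Wistar EOPS rats receive 0.1 ml of 5% carragenin suspension in physiological serum into the hind-paw metatarsal muscle, with test substance given i.p. in neutralized solution at the same time. Paw edema is measured by plethysmometry at several times after carragenin and reported as % inhibition against pH-matched physiological serum controls.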
# capillary resistance = assay: Capillaroprotecting effects: capillary resistance; type: in vivo, male OFA EOPS rats
# Protocol: (§2) Capillaroprotecting effects
# The capillary resistance was determined by a variant of the method of Charlier et al, Arch. Inter. Physiol.
# capillary permeability = assay: Capillaroprotecting effects: capillary permeability; type: in vivo, conventional male Wistar rats
# Protocol: as §2
# The capillary permeability was determined by the method of Charlier et al, Arch. Inter. Physiol.
# OF1 EOPS mice = assay: Acute i.p. toxicity in OF1 EOPS mice; type: in vivo; details: neutralized borate buffer, over 7 days
# Protocol: The acute toxicity of the compounds of the present invention was determined in mice.
# [1] = Anti-inflammatory activity: carragenin edema test; type: in vivo; details: rat, in vivo, ip, borate buffer pH 7
# In short: as §1
# [2] = 1 h, pH 7, read-out: % inhibition of carragenin edema, 75 mg/kg i.p., borate buffer pH 7, 1 h
# [3] = 1 h, pH 7, read-out: % inhibition of carragenin edema, 75 mg/kg i.p., borate buffer pH 7, 1 h 1/2
# [4] = 1 h, pH 7, read-out: % inhibition of carragenin edema, 100 mg/kg i.p., borate buffer pH 7, 1 h
# [5] = 1 h, pH 7, read-out: % inhibition of carragenin edema, 100 mg/kg i.p., borate buffer pH 7, 1 h 1/2
# [6] = 1 h, pH 7, read-out: % inhibition of carragenin edema, 150 mg/kg i.p., borate buffer pH 7, 1 h
# [7] = 1 h, pH 7, read-out: % inhibition of carragenin edema, 150 mg/kg i.p., borate buffer pH 7, 1 h 1/2
# [8] = 2 h, pH 7, read-out: % inhibition of carragenin edema, 75 mg/kg i.p., borate buffer pH 7, 2 h
# [9] = 2 h, pH 7, read-out: % inhibition of carragenin edema, 100 mg/kg i.p., borate buffer pH 7, 2 h
# [10] = 2 h, pH 7, read-out: % inhibition of carragenin edema, 150 mg/kg i.p., borate buffer pH 7, 2 h
# [11] = 3 h, pH 7, read-out: % inhibition of carragenin edema, 75 mg/kg i.p., borate buffer pH 7, 3 h
# [12] = 3 h, pH 7, read-out: % inhibition of carragenin edema, 100 mg/kg i.p., borate buffer pH 7, 3 h
# [13] = 3 h, pH 7, read-out: % inhibition of carragenin edema, 150 mg/kg i.p., borate buffer pH 7, 3 h
# [14] = 4 h, pH 7, read-out: % inhibition of carragenin edema, 75 mg/kg i.p., borate buffer pH 7, 4 h
# [15] = 4 h, pH 7, read-out: % inhibition of carragenin edema, 100 mg/kg i.p., borate buffer pH 7, 4 h
# [16] = 4 h, pH 7, read-out: % inhibition of carragenin edema, 150 mg/kg i.p., borate buffer pH 7, 4 h
# [17] = 5 h, pH 7, read-out: % inhibition of carragenin edema, 75 mg/kg i.p., borate buffer pH 7, 5 h
# [18] = 5 h, pH 7, read-out: % inhibition of carragenin edema, 100 mg/kg i.p., borate buffer pH 7, 5 h
# [19] = 5 h, pH 7, read-out: % inhibition of carragenin edema, 150 mg/kg i.p., borate buffer pH 7, 5 h
# [20] = 6 h, pH 7, read-out: % inhibition of carragenin edema, 75 mg/kg i.p., borate buffer pH 7, 6 h
# [21] = 6 h, pH 7, read-out: % inhibition of carragenin edema, 100 mg/kg i.p., borate buffer pH 7, 6 h
# [22] = 6 h, pH 7, read-out: % inhibition of carragenin edema, 150 mg/kg i.p., borate buffer pH 7, 6 h
# [23] = read-out: % inhibition of carragenin edema, 75 mg/kg i.p., borate buffer pH 7, 1/2 h
# [24] = read-out: % inhibition of carragenin edema, 100 mg/kg i.p., borate buffer pH 7, 1/2 h
# [25] = read-out: % inhibition of carragenin edema, 150 mg/kg i.p., borate buffer pH 7, 1/2 h
smiles,measurement,setting,value
"C[C@@H]1O[C@@H](Oc2c(-c3ccc(O)c(O)c3)oc3cc(O)cc(O)c3c2=O)[C@@H]2OC(C)(C)O[C@@H]2[C@H]1O [No. 3, 3-O-(2,3-O,O-isopropylidene-α-L-rhamnosyl)-quercetin]",solubility,Solubilities in water,1600 µg/mL
same,inhibition at 100 µM,Aldose Reductase,100%
same,inhibition at 10 µM,Aldose Reductase,92%
same,inhibition at 1 µM,Aldose Reductase,80%
same,inhibition at 0.1 µM,Aldose Reductase,40%
same,% inhibition of carragenin edema,carragenin edema; 75 mg/kg i.p.,21%
same,% inhibition of carragenin edema,carragenin edema; 100 mg/kg i.p.,17%
same,% inhibition of carragenin edema,carragenin edema; 150 mg/kg i.p.,11%
same,% inhibition of carragenin edema,carragenin edema; 200 mg/kg i.p.,0%
same,inhibition in vivo at 75 mg/kg,carragenin edema; [2],0%
same,inhibition in vivo at 75 mg/kg,carragenin edema; [3],0%
same,inhibition in vivo at 100 mg/kg,carragenin edema; [4],55%
same,inhibition in vivo at 100 mg/kg,carragenin edema; [5],41%
same,inhibition in vivo at 150 mg/kg,carragenin edema; [6],0%
same,inhibition in vivo at 150 mg/kg,carragenin edema; [7],0%
same,inhibition in vivo at 200 mg/kg,"carragenin edema; 1 h, pH 7, read-out: % inhibition of carragenin edema, 200 mg/kg i.p., borate buffer pH 7, 1 h",45%
same,inhibition in vivo at 200 mg/kg,"carragenin edema; 1 h, pH 7, read-out: % inhibition of carragenin edema, 200 mg/kg i.p., borate buffer pH 7, 1 h 1/2",12%
same,inhibition in vivo at 75 mg/kg,carragenin edema; [8],10%
same,inhibition in vivo at 100 mg/kg,carragenin edema; [9],30%
same,inhibition in vivo at 150 mg/kg,carragenin edema; [10],20%
same,inhibition in vivo at 200 mg/kg,"carragenin edema; 2 h, pH 7, read-out: % inhibition of carragenin edema, 200 mg/kg i.p., borate buffer pH 7, 2 h",0%
same,inhibition in vivo at 75 mg/kg,carragenin edema; [11],6%
same,inhibition in vivo at 100 mg/kg,carragenin edema; [12],19%
same,inhibition in vivo at 150 mg/kg,carragenin edema; [13],0%
same,inhibition in vivo at 200 mg/kg,"carragenin edema; 3 h, pH 7, read-out: % inhibition of carragenin edema, 200 mg/kg i.p., borate buffer pH 7, 3 h",0%
same,inhibition in vivo at 75 mg/kg,carragenin edema; [14],3%
same,inhibition in vivo at 100 mg/kg,carragenin edema; [15],18%
same,inhibition in vivo at 150 mg/kg,carragenin edema; [16],2%
same,inhibition in vivo at 200 mg/kg,"carragenin edema; 4 h, pH 7, read-out: % inhibition of carragenin edema, 200 mg/kg i.p., borate buffer pH 7, 4 h",0%
same,inhibition in vivo at 75 mg/kg,carragenin edema; [17],6%
same,inhibition in vivo at 100 mg/kg,carragenin edema; [18],19%
same,inhibition in vivo at 150 mg/kg,carragenin edema; [19],3%
same,inhibition in vivo at 200 mg/kg,"carragenin edema; 5 h, pH 7, read-out: % inhibition of carragenin edema, 200 mg/kg i.p., borate buffer pH 7, 5 h",2%
same,inhibition in vivo at 75 mg/kg,carragenin edema; [20],10%
same,inhibition in vivo at 100 mg/kg,carragenin edema; [21],18%
same,inhibition in vivo at 150 mg/kg,carragenin edema; [22],8%
same,inhibition in vivo at 200 mg/kg,"carragenin edema; 6 h, pH 7, read-out: % inhibition of carragenin edema, 200 mg/kg i.p., borate buffer pH 7, 6 h",1%
same,inhibition in vivo at 75 mg/kg,carragenin edema; [23],26%
same,inhibition in vivo at 100 mg/kg,carragenin edema; [24],45%
same,inhibition in vivo at 150 mg/kg,carragenin edema; [25],26%
same,inhibition in vivo at 200 mg/kg,"carragenin edema; read-out: % inhibition of carragenin edema, 200 mg/kg i.p., borate buffer pH 7, 1/2 h",40%
same,% of animals for which the effect is ≥ 25 u cm Hg/h,capillary resistance; 50 mg/kg i.p.,40%
same,"capillary resistance, effect observed",capillary resistance; 50 mg/kg i.p.,19.5 ± 7.4 u cm Hg/h
same,% of animals for which the effect is ≥ 25 u cm Hg/h,capillary resistance; 100 mg/kg i.p.,80%
same,"capillary resistance, effect observed",capillary resistance; 100 mg/kg i.p.,34.75 ± 11.1 u cm Hg/h
same,% of animals for which the effect is ≥ 25 u cm Hg/h,capillary resistance; 200 mg/kg i.p.,100%
same,"capillary resistance, effect observed",capillary resistance; 200 mg/kg i.p.,56 ± 11.3 u cm Hg/h
same,percentage reduction of capillary permeability,capillary permeability; 50 mg/kg i.p.,21%
same,percentage reduction of capillary permeability,capillary permeability; 100 mg/kg i.p.,25%
same,percentage reduction of capillary permeability,capillary permeability; 200 mg/kg i.p.,59%
same,dose until which no mortality resulted,OF1 EOPS mice,400 mg/kg
"C[C@@H]1O[C@@H](Oc2c(-c3ccc(O)c(O)c3)oc3cc(O)cc(O)c3c2=O)[C@@H]2OC3(CCCCC3)O[C@@H]2[C@H]1O [No. 7, 3-O-(2,3-O,O-cyclohexylidene-α-L-rhamnosyl)-quercetin]",solubility,Solubilities in water,< 100 µg/mL
same,inhibition at 100 µM,Aldose Reductase,91%
same,inhibition at 10 µM,Aldose Reductase,95%
same,inhibition at 1 µM,Aldose Reductase,84%
same,inhibition at 0.1 µM,Aldose Reductase,87%
same,mortality at 24 h,[1]; 100 mg/kg i.p.,20%
same,mortality at 5 h,[1]; 150 mg/kg i.p.,80%
same,% inhibition of carragenin edema,carragenin edema; 50 mg/kg i.p.,10%
same,% inhibition of carragenin edema,carragenin edema; 75 mg/kg i.p.,84%
same,% inhibition of carragenin edema,carragenin edema; 100 mg/kg i.p.,67%
same,% inhibition of carragenin edema,carragenin edema; 150 mg/kg i.p.,87%
same,inhibition in vivo at 50 mg/kg,"carragenin edema; 1 h, pH 7, read-out: % inhibition of carragenin edema, 50 mg/kg i.p., borate buffer pH 7, 1 h",14%
same,inhibition in vivo at 50 mg/kg,"carragenin edema; 1 h, pH 7, read-out: % inhibition of carragenin edema, 50 mg/kg i.p., borate buffer pH 7, 1 h 1/2",22%
same,inhibition in vivo at 75 mg/kg,carragenin edema; [2],73%
same,inhibition in vivo at 75 mg/kg,carragenin edema; [3],91%
same,inhibition in vivo at 100 mg/kg,carragenin edema; [4],51%
same,inhibition in vivo at 100 mg/kg,carragenin edema; [5],52%
same,inhibition in vivo at 150 mg/kg,carragenin edema; [6],89%
same,inhibition in vivo at 150 mg/kg,carragenin edema; [7],97%
same,inhibition in vivo at 50 mg/kg,"carragenin edema; 2 h, pH 7, read-out: % inhibition of carragenin edema, 50 mg/kg i.p., borate buffer pH 7, 2 h",16%
same,inhibition in vivo at 75 mg/kg,carragenin edema; [8],89%
same,inhibition in vivo at 100 mg/kg,carragenin edema; [9],48%
same,inhibition in vivo at 150 mg/kg,carragenin edema; [10],97%
same,inhibition in vivo at 50 mg/kg,"carragenin edema; 3 h, pH 7, read-out: % inhibition of carragenin edema, 50 mg/kg i.p., borate buffer pH 7, 3 h",23%
same,inhibition in vivo at 75 mg/kg,carragenin edema; [11],86%
same,inhibition in vivo at 100 mg/kg,carragenin edema; [12],45%
same,inhibition in vivo at 150 mg/kg,carragenin edema; [13],94%
same,inhibition in vivo at 50 mg/kg,"carragenin edema; 4 h, pH 7, read-out: % inhibition of carragenin edema, 50 mg/kg i.p., borate buffer pH 7, 4 h",21%
same,inhibition in vivo at 75 mg/kg,carragenin edema; [14],81%
same,inhibition in vivo at 100 mg/kg,carragenin edema; [15],46%
same,inhibition in vivo at 150 mg/kg,carragenin edema; [16],89%
same,inhibition in vivo at 50 mg/kg,"carragenin edema; 5 h, pH 7, read-out: % inhibition of carragenin edema, 50 mg/kg i.p., borate buffer pH 7, 5 h",7%
same,inhibition in vivo at 75 mg/kg,carragenin edema; [17],83%
same,inhibition in vivo at 100 mg/kg,carragenin edema; [18],45%
same,inhibition in vivo at 150 mg/kg,carragenin edema; [19],91%
same,inhibition in vivo at 50 mg/kg,"carragenin edema; 6 h, pH 7, read-out: % inhibition of carragenin edema, 50 mg/kg i.p., borate buffer pH 7, 6 h",6%
same,inhibition in vivo at 75 mg/kg,carragenin edema; [20],81%
same,inhibition in vivo at 100 mg/kg,carragenin edema; [21],43%
same,inhibition in vivo at 150 mg/kg,carragenin edema; [22],86%
same,inhibition in vivo at 50 mg/kg,"carragenin edema; read-out: % inhibition of carragenin edema, 50 mg/kg i.p., borate buffer pH 7, 1/2 h",0%
same,inhibition in vivo at 75 mg/kg,carragenin edema; [23],48%
same,inhibition in vivo at 100 mg/kg,carragenin edema; [24],21%
same,inhibition in vivo at 150 mg/kg,carragenin edema; [25],70%
